Measured values as given in US7582803B2 (Amgen Inc., priority 2005, dated 2009).
pEC50: −log10 of the molar value.

molecular target: T1, human GPR40 (Homo sapiens, UniProt O14842); assay: Cell-based aequorin assay; details: CHO cells stably transfected with GPR40 and aequorin; 0.01% HSA; aequorin luminescence; read-out: Relative EC50
T1 construct: expressed in transfected cells; host or cells: CHO cells
Procedure: Cell-based aequorin assays were employed to characterize the modulatory activity of compounds on the GPR40 signaling pathway. In an exemplary assay, CHO cells were stably transfected with both GPR40 and Aequorin (Euroscreen). Cells were detached from the tissue culture dish with 2 mL of trypsin (0.25% (w/v)). Trypsinization was halted with 28 mL of Hanks Buffered Salt Solution containing 20 mM Hepes (H/HBSS) and 0.01% fatty acid-free human serum albumin (HSA). Coelantrazine is added to 1 ug/mL, and the cells were incubated for 2 hours at room temperature. Compounds were dissolved in DMSO for preparation of 10 mM stock solutions. Compounds were diluted in H/HBSS containing 0.01% HSA. Serial dilutions of the test compounds were prepared to determine dose response.
Aequorin luminescence measurements were made using an EG&G Berthold 96-well luminometer, and the response was measured over a 20 second interval after cells and compounds were mixed. The maximum relative light units was plotted to determine dose response. The EC50 (effective concentration to reach 50% maximal response) was determined from the dose response plot.
Table 1 presents representative data (EC50 values) obtained for exemplary compounds of the invention for the relative activation of human GPR40. […]

T1 sequence (O14842 whole entry): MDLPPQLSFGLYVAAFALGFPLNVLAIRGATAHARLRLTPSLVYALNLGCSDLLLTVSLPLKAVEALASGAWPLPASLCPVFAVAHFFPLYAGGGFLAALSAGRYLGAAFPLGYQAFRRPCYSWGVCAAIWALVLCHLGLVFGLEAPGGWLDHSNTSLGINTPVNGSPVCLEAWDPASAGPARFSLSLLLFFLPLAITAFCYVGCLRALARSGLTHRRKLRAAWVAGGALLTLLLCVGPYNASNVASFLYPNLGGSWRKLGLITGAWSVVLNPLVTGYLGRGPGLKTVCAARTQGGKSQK

First: CC1(C)CCC(C)(C)c2cc(COc3ccc([C@H](CC(=O)O)c4ccon4)cc3)ccc21 [Example 76, (S)-3-(Isoxazol-3-yl)-3-(4-((5,5,8,8-tetramethyl-5,6,7,8-tetrahydronaphthalen-2-yl)methoxy)phenyl)propanoic acid]
Second: Cn1ncnc1[C@@H](CC(=O)O)c1ccc(OCc2ccc3c(c2)C(C)(C)CCC3(C)C)cc1 [Example 72, (S)-3-(2-Methyl-2H-[1,2,4]triazol-3-yl)-3-[4-(5,5,8,8-tetramethyl-5,6,7,8-tetrahydro-naphthalen-2-ylmethoxy)-phenyl]-propionic acid]
The pEC50 of the first is higher: 7.00 to 8.00 for the first, 6.00 to 7.00 for the second.

`Cn1ccnc1[C@@H](CC(=O)O)c1ccc(OCc2cc3c(cc2Br)C(C)(C)CCC3(C)C)cc1` [Example 91, (S)-3-(4-((3-Bromo-5,5,8,8-tetramethyl-5,6,7,8-tetrahydronaphthalen-2-yl)methoxy)phenyl)-3-(1-methyl-1H-imidazol-2-yl)propanoic acid] and `Cc1cc2c(cc1COc1ccc([C@H](CC(=O)O)c3nccn3C)cc1)C(C)(C)CCC2(C)C` [Example 93, (S)-3-(4-((3-Methyl-5,5,8,8-tetramethyl-5,6,7,8-tetrahydronaphthalen-2-yl)methoxy)phenyl)-3-(1-methyl-1H-imidazol-2-yl)propanoic acid] fall in the same range of pEC50: 6.00 to 7.00 for the first, 6.00 to 7.00 for the second.

First: CC#C[C@@H](CC(=O)O)c1ccc(OC2CCc3ccccc3C2)cc1 (stereo partly drawn) [Example 26, (3S)-3-[4-(1,2,3,4-Tetrahydro-naphthalen-2-yloxy)-phenyl]-hex-4-ynoic acid]
Second: CC#C[C@@H](CC(=O)O)c1ccc(OC2CCCc3ccccc32)cc1 (stereo partly drawn) [Example 24, (3S)-3-[4-(1,2,3,4-Tetrahydro-naphthalen-1-yloxy)-phenyl]-hex-4-ynoic acid]
The pEC50 of the first is lower: 6.00 to 7.00 for the first, 7.00 to 8.00 for the second. The second is the more potent here.

`CC#C[C@H](CC(=O)O)c1ccc(OC2CCc3cc(-c4cccc(OCC)c4)ccc32)cc1` (stereo partly drawn) [Example 59, (3R)-3-(4-(5-(3-Ethoxyphenyl)-2,3-dihydro-1H-inden-1-yloxy)phenyl)hex-4-ynoic acid] and `CC#C[C@H](CC(=O)O)c1ccc(OC2CCc3cc(-c4cccc(OC)c4)ccc32)cc1` (stereo partly drawn) [Example 62, (3R)-3-(4-(5-(3-Methoxyphenyl)-2,3-dihydro-1H-inden-1-yloxy)phenyl)hex-4-ynoic acid] cannot be ordered by pEC50: less than 5.00 for the first, less than 5.00 for the second.

`CC#C[C@@H](CC(=O)O)c1ccc(OC2CCc3cc(-c4cc(C)ccc4OCCCC)ccc32)cc1` (stereo partly drawn) [Example 3, (3S)-3-(4-(5-(2-Butoxy-5-methylphenyl)-2,3-dihydro-1H-inden-1-yloxy)phenyl)hex-4-ynoic acid] and `CC#C[C@@H](CC(=O)O)c1ccc(OC2CCc3c(-c4cc(C)ccc4OCCCC)cccc32)cc1` (stereo partly drawn) [Example 8, (3S)-3-{4-[4-(2-Butoxy-5-methyl-phenyl)-indan-1-yloxy]-phenyl}-hex-4-ynoic acid] fall in the same range of pEC50: 7.00 to 8.00 for the first, 7.00 to 8.00 for the second.

First: O=C(O)CC(c1ccc(OC2Cc3ccccc3C2)cc1)c1cccs1 (racemic) [Example 48, (+/−)-3-(4-(2,3-Dihydro-1H-inden-2-yloxy)phenyl)-3-(thiophen-2-yl)propanoic acid]
Second: O=C(O)CC(c1ccc(OC2Cc3ccccc3C2)cc1)c1c(F)cccc1F (racemic) [Example 39, (+/−)3-(2,6-Difluorophenyl)-3-(4-(2,3-dihydro-1H-inden-2-yloxy)phenyl)propanoic acid]
The pEC50 of the first is higher: 6.00 to 7.00 for the first, 5.00 to 6.00 for the second.

`CC#C[C@@H](CC(=O)O)c1ccc(OC2CCCc3c(Br)cccc32)cc1` (stereo partly drawn) [Example 25, (3S)-3-[4-(5-Bromo-1,2,3,4-tetrahydro-naphthalen-1-yloxy)-phenyl]-hex-4-ynoic acid] and `CC#C[C@@H](CC(=O)O)c1ccc(O[C@@H]2CCc3cc(Br)ccc32)cc1` (single isomer, unassigned) [Example 44] fall in the same range of pEC50: 7.00 to 8.00 for the first, 7.00 to 8.00 for the second.

`O=C(O)CC(c1ccccc1)c1ccc(OC2CCc3cc(Br)ccc32)cc1` (racemic) [Example 41, (+/−)-3-[4-(5-Bromo-indan-1-yloxy)-phenyl]-3-phenyl-propionic acid] and `O=C(O)CC(c1ccc(F)cc1)c1ccc(OC2CCc3cc(Br)ccc32)cc1` (racemic) [Example 42, (+/−)-3-[4-(5-Bromo-indan-1-yloxy)-phenyl]-3-(4-fluoro-phenyl)-propionic acid] fall in the same range of pEC50: 6.00 to 7.00 for the first, 6.00 to 7.00 for the second.

`CC#C[C@H](CC(=O)O)c1ccc(OC2CCc3cc(-c4ccccc4OCC)ccc32)cc1` (stereo partly drawn) [Example 65, (3R)-3-(4-(5-(2-Ethoxyphenyl)-2,3-dihydro-1H-inden-1-yloxy)phenyl)hex-4-ynoic acid] and `CC#C[C@H](CC(=O)O)c1ccc(OC2CCc3cc(-c4cc(OCC)ccc4F)ccc32)cc1` (stereo partly drawn) [Example 66, (3R)-3-(4-(5-(5-Ethoxy-2-fluorophenyl)-2,3-dihydro-1H-inden-1-yloxy)phenyl)hex-4-ynoic acid] cannot be ordered by pEC50: less than 5.00 for the first, less than 5.00 for the second.

First: CC1(C)CCC(C)(C)c2cc(COc3ccc([C@H](CC(=O)O)c4ccc(F)cc4)cc3)ccc21 [Example 89, (S)-3-(4-Fluorophenyl)-3-(4-((5,5,8,8-tetramethyl-5,6,7,8-tetrahydronaphthalen-2-yl)methoxy)phenyl)propanoic acid]
Second: Cn1nnnc1[C@@H](CC(=O)O)c1ccc(OCc2ccc3c(c2)C(C)(C)CCC3(C)C)cc1 [Example 81, (S)-3-(1-Methyl-1H-tetrazol-5-yl)-3-[4-(5,5,8,8-tetramethyl-5,6,7,8-tetrahydro-naphthalen-2-ylmethoxy)-phenyl]-propionic acid]
The pEC50 of the first is lower: 6.00 to 7.00 for the first, 7.00 to 8.00 for the second. The second is the more potent here.

`CC#C[C@@H](CC(=O)O)c1ccc(OC2CCc3ccc(-c4ccc(C(F)(F)F)cc4)cc32)cc1` (stereo partly drawn) [Example 11, (3S)-3-(4-(6-(4-(trifluoromethyl)phenyl)-2,3-dihydro-1H-inden-1-yloxy)phenyl)hex-4-ynoic acid] and `CC#C[C@@H](CC(=O)O)c1ccc(OC2CCc3cc(-c4ccc(C(F)(F)F)cc4)ccc32)cc1` (stereo partly drawn) [Example 1] fall in the same range of pEC50: 7.00 to 8.00 for the first, 7.00 to 8.00 for the second.

`CC#C[C@@H](CC(=O)O)c1ccc(OC2CCc3c(-c4ccc(OC(F)(F)F)cc4)cccc32)cc1` (stereo partly drawn) [Example 6, (3S)-3-{4-[4-(4-Trifluoromethoxy-phenyl)-indan-1-yloxy]-phenyl}-hex-4-ynoic acid] and `CC#C[C@@H](CC(=O)O)c1ccc(OC2CCc3cc(-c4cccc(OC(F)(F)F)c4)ccc32)cc1` (stereo partly drawn) [Example 50, (3S)-3-(4-(5-(3-(Trifluoromethoxy)phenyl)-2,3-dihydro-1H-inden-1-yloxy)phenyl)hex-4-ynoic acid] fall in the same range of pEC50: 7.00 to 8.00 for the first, 7.00 to 8.00 for the second.

`CCC1(CC)CCC(C)(C)c2ccc(COc3ccc([C@H](CC(=O)O)c4nccn4C)cc3)cc21` [Example 88, (S)-3-(4-((8,8-Diethyl-5,5-dimethyl-5,6,7,8-tetrahydronaphthalen-2-yl)methoxy)phenyl)-3-(1-methyl-1H-imidazol-2-yl)propanoic acid] and `CCc1cc2c(cc1COc1ccc([C@H](CC(=O)O)c3nccn3C)cc1)C(C)(C)CCC2(C)C` [Example 94, (S)-3-(4-((3-Ethyl-5,5,8,8-tetramethyl-5,6,7,8-tetrahydronaphthalen-2-yl)methoxy)phenyl)-3-(1-methyl-1H-imidazol-2-yl)propanoic acid] fall in the same range of pEC50: 6.00 to 7.00 for the first, 6.00 to 7.00 for the second.

`O=C(O)CC(c1ccc(OC2Cc3ccccc3C2)cc1)c1ncco1` (racemic) [Example 32, (+/−)-3-(4-(2,3-Dihydro-1H-inden-2-yloxy)phenyl)3-(oxazol-2-yl)propanoic acid] and `O=C(O)CC(c1ccc(OC2CCC(c3ccccc3)CC2)cc1)c1cccs1` (racemic) [Example 31, (+/−)-3-(4-(4-Phenylcyclohexyloxy)phenyl)-3-(thiophen-2-yl)propanoic acid] fall in the same range of pEC50: 5.00 to 6.00 for the first, 5.00 to 6.00 for the second.

Compared with `O=C(O)CC(c1ccc(OC2CCc3cc(Br)ccc32)cc1)n1cccn1` (stereo not drawn) [Example 47, 3-(4-(5-Bromo-2,3-dihydro-1H-inden-1-yloxy)phenyl)-3-(1H-pyrazol-1-yl)propanoic acid], `CC#C[C@@H](CC(=O)O)c1ccc(OC2CCc3cc(Cl)ccc32)cc1` (stereo partly drawn) [Example 15, (3S)-3-[4-(5-Chloro-indan-1-yloxy)-phenyl]-hex-4-ynoic acid] is higher in pEC50: 6.00 to 7.00 for the first, greater than 8.00 for the second. The second is the more potent here.

`Cn1ccnc1[C@@H](CC(=O)O)c1ccc(OCc2cc3c(cc2C2CC2)C(C)(C)CCC3(C)C)cc1` [Example 92, (S)-3-(4-((3-Cyclopopyl-5,5,8,8-tetramethyl-5,6,7,8-tetrahydronaphthalen-2-yl)methoxy)phenyl)-3-(1-methyl-1H-imidazol-2-yl)propanoic acid] and `CC#C[C@H](CC(=O)O)c1ccc(OC2CCc3cc(-c4c(C)cc(C)cc4C)ccc32)cc1` (stereo partly drawn) [Example 64, (3R)-3-(4-(5-Mesityl-2,3-dihydro-1H-inden-1-yloxy)phenyl)hex-4-ynoic acid] cannot be ordered by pEC50: less than 5.00 for the first, less than 5.00 for the second.

Compared with `CC#C[C@H](CC(=O)O)c1ccc(OCC2CCCCC2)cc1` [Example 68, (R)-3-(4-(Cyclohexylmethoxy)phenyl)hex-4-ynoic acid], `CC#C[C@@H](CC(=O)O)c1ccc(OC2CCc3cc(C#N)ccc32)cc1` (stereo partly drawn) [Example 54, (3S)-3-(4-(5-Cyano-2,3-dihydro-1H-inden-1-yloxy)phenyl)hex-4-ynoic acid] is higher in pEC50: 5.00 to 6.00 for the first, 7.00 to 8.00 for the second. The second is the more potent here.

First: COc1ccc(F)c(-c2ccc3c(c2)CCC3Oc2ccc([C@H](C=C(C)C)CC(=O)O)cc2)c1 (stereo partly drawn) [Example 56]
Second: CC#C[C@@H](CC(=O)O)c1ccc(OC2CCc3cc(-c4cc(OC)ccc4F)ccc32)cc1 (stereo partly drawn) [Example 55, (3S)-3-(4-(5-(2-Fluoro-5-methoxyphenyl)-2,3-dihydro-1H-inden-1-yloxy)phenyl)hex-4-ynoic acid]
The pEC50 of the first is lower: 5.00 to 6.00 for the first, 6.00 to 7.00 for the second. The second is the more potent here.
